Laboratory results reported in paper PMC6264278, “Corydaline Inhibits Multiple Cytochrome P450 and UDP-Glucuronosyltransferase Enzyme Activities in Human Liver Microsomes” (Molecules, 2011).

Biological target: T1, UGT1A9 (Homo sapiens, UniProt O60656)
T1 construct: using pooled human liver microsomes; tissue BD Gentest Co. H161; host or cells: pooled human liver microsomes
T1 sequence (O60656 26-530): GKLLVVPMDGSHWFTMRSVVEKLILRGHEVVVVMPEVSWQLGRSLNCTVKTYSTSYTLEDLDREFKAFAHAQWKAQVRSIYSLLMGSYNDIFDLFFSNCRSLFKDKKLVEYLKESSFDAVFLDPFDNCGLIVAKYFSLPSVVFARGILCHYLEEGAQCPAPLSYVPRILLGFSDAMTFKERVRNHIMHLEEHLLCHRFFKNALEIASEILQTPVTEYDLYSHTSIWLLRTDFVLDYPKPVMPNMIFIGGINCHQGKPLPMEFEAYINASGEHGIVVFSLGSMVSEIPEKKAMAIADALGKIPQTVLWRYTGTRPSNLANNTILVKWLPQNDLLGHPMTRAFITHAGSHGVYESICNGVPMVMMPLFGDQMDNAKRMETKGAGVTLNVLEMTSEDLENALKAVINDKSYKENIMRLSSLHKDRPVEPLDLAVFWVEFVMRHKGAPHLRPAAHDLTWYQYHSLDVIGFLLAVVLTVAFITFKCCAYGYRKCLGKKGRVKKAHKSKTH
Assay: UGT1A9 propofol glucuronidation inhibition in pooled human liver microsomes
Type: in vitro ADME
Description: The inhibitory potencies (IC50 values) of corydaline were also determined with UGT assays in the presence and absence of corydaline (final concentrations of 1–1,000 μM with acetonitrile concentration less than 0.5% v/v) using pooled human liver microsomes. 17β-Estradiol 3-glucuronidation, trifluoperazine glucuronidation, propofol glucuronidation, and azidothymidine glucuronidation activities were determined as probe activities for UGT1A1, UGT1A4, UGT1A9, and UGT2B7, respectively, using LC/MS/MS. Incubation mixtures were prepared in a total volume of 100 μL, as follows: Pooled human liver microsomes (0.2 mg/mL for 17β-estradiol, trifluoperazine and azidothymidine; 0.1 mg/mL for propofol), 2 mM UDPGA, 25 μg/mL alamethicin, 10 mM MgCl2, 50 mM tris buffer (pH 7.4), UGT-isoform specific probe substrate (20 μM 17β-estradiol for UGT1A1, 5 μM trifluoperazine for UGT1A4, 10 μM propofol for UGT1A9, or 100 μM azidothymidine for UGT2B7), and various concentrations of corydaline (1−1000 μM). Reactions were initiated by addition of UDPGA, and incubations were carried out at 37 °C in a shaking water bath for 30 min. […]
Glucuronides produced from UGT isoform-specific substrates were respectively determined by LC/MS/MS. […] Quantification was performed by SRM of the [M+H]^+ ion for trifluoperazine glucuronide and azidothymidine glucuronide or [M−H]^− for 17β-estradiol 3-glucuronide and propofol glucuronide and the related product ion for each metabolite.
Reactions were initiated by addition of NADPH at 37 °C and stopped after 15 min by placement of the incubation tubes on ice and addition of ice-cold methanol (100 μL) containing an internal standard (2.0 μg/mL ^13C6-4-hydroxydiclofenac for diclofenac, 0.5 μg/mL d3-4-hydroxymephenytoin for mephenytoin, or 0.5 μg/mL d9-1-hydroxy-bufuralol for bufuralol). The incubation mixtures were centrifuged at 13,000 × g for 5 min, and aliquots (5 μL) of the supernatants were analyzed by LC/MS/MS. […] Aliquots (5 μL) were analyzed by LC/MS/MS. […]

With `COc1cc2c(cc1OC)C1C(C)c3ccc(OC)c(OC)c3CN1CC2` (stereo not drawn) [Corydaline, 2,3,9,10-tetramethoxy-13-methyl-5,8,13,13a-tetrahydro-6H-isoquino[3,2-a]isoquinoline] the Ki (human liver microsomes, 10-30 μM propofol) was 37.3 ± 14.4 µM, the “inhibition mode, UGT1A9 propofol glucuronidation” value (mixed competitive-noncompetitive equation, nonlinear regression) was “competitive” and the IC50 (pooled human liver microsomes (H161), 10 μM propofol, mean ± SD, n = 3) was 39.4 ± 6 µM.
